Measurements published in patent publication US20260297081A1, “COMPOUNDS AND METHODS OF TREATING CANCERS” (Cullgen Inc., priority 2023, published 2026).

How the values were obtained:
MCF7 cells = experiment: Anti-proliferation (viability) of MCF7 cells (Table 7, FIG. 2B); assay type: cell-based; conditions: Homo sapiens, MCF7, MCF7 cells, 3-6 days, 10-point serial dilution; read-out: GI IC50 in MCF-7
CDK4 = CDK4 (Homo sapiens, UniProt P11802+Q16531); experiment: HiBiT detection of HiBiT-tagged CDK4 protein level in MCF7 cells, 16 hours (Table 8); assay type: cell-based; set-up: expressed in transfected cells; host or cells: MCF7; conditions: MCF7 cells stably expressing HiBiT tagged target proteins; for activity at 0.01 µM: 10 nM, read-out: % CDK4 Relative Level (10 nM); for activity at 0.1 µM: 100 nM, read-out: % CDK4 Relative Level (100 nM)
CDK4, sequence (P11802 whole entry): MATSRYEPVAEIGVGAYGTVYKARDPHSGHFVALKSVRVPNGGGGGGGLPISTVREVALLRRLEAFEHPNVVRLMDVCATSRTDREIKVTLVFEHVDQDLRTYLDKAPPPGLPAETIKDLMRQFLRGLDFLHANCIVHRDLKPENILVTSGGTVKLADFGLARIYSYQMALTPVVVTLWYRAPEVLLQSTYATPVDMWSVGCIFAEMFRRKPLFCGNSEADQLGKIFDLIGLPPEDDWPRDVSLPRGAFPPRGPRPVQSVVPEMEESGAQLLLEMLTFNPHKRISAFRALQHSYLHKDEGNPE
CDK4, sequence (P24385 whole entry partner): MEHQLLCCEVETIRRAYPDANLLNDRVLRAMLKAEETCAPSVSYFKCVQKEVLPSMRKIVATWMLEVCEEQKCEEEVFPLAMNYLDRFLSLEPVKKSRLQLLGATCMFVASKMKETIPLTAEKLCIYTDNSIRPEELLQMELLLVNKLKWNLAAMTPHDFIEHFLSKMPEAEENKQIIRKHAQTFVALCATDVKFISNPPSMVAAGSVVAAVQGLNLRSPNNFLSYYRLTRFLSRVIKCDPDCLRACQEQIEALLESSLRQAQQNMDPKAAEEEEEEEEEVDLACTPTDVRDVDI
CDK4, sequence (Q16531 2-1140 limits assumed): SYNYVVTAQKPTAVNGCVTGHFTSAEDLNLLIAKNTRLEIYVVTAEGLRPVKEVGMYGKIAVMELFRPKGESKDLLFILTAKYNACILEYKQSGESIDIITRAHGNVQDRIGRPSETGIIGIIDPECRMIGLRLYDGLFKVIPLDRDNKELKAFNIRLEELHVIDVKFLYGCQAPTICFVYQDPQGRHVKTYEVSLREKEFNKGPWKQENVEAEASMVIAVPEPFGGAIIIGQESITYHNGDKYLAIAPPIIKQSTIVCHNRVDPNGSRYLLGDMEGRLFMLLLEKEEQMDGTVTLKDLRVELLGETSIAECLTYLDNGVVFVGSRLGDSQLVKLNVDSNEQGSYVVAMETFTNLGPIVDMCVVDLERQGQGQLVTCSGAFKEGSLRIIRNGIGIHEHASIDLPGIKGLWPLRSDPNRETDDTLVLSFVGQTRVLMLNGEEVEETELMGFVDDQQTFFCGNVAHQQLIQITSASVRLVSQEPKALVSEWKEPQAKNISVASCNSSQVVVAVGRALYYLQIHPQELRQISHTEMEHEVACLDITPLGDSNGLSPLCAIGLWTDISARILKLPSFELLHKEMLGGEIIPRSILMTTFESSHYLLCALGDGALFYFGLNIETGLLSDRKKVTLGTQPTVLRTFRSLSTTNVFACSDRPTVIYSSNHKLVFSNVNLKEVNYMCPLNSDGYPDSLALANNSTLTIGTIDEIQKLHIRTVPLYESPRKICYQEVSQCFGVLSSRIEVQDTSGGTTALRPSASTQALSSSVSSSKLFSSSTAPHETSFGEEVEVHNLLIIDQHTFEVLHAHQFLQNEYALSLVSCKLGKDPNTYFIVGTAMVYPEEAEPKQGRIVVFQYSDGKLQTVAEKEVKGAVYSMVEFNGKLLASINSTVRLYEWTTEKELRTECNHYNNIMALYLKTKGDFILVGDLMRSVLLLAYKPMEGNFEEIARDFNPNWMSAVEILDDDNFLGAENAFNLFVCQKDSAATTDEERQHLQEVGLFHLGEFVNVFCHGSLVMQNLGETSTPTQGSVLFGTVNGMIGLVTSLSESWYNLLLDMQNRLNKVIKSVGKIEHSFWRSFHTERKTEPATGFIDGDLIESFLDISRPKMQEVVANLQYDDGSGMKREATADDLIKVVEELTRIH
Procedure: HiBiT detection system quantitatively measures total amounts of HiBiT-tagged proteins using a luminescent based method. MCF7 cells stably expressing HiBiT tagged target proteins were treated with heterobifunctional compounds at indicated concentrations for 16 hours, then lysed with Nano-Glo HiBiT Lytic detection reagents.

Row | IC50 (MCF7 cells) [nM] | activity at 0.01 µM (CDK4) [%] | activity at 0.1 µM (CDK4) [%] | SMILES
1 | < 50 | 55 to 85 | 55 to 85 | CC(=O)c1c(C)c2cnc(Nc3ccc(N4CCN(CC(=O)NCC56CC(Nc7nc(NC(C)C)ccc7C(=O)Nc7ccc(N(C)C)nn7)(C5)C6)CC4)cn3)nc2n(C2CCCC2)c1=O [CPD-429, 2-((3-((2-(4-(6-((6-acetyl-8-cyclopentyl-5-methyl-7-oxo-7,8-dihydropyrido[2,3-d]pyrimidin-2-yl)amino)pyridin-3-yl)piperazin-1-yl)acetamido)methyl)bicyclo[1.1.1]pentan-1-yl)amino)-N-(6-(dimethylamino)pyridazin-3-yl)-6-(isopropylamino)nicotinamide]
2 | < 50 | 55 to 85 | 55 to 85 | [2H]C([2H])([2H])Nc1ccc(C(=O)Nc2cc(C)n(C)n2)c(NC2CC3(C2)CN(C(=O)CN2CCC4(CCN(c5ccc(Nc6ncc7c(C)c(C(C)=O)c(=O)n(C8CCCC8)c7n6)nc5)C4)C2)C3)n1 (stereo not drawn) [CPD-447, 2-((2-(2-(7-(6-((6-acetyl-8-cyclopentyl-5-methyl-7-oxo-7,8-dihydropyrido[2,3-d]pyrimidin-2-yl)amino)pyridin-3-yl)-2,7-diazaspiro[4.4]nonan-2-yl)acetyl)-2-azaspiro[3.3]heptan-6-yl)amino)-N-(1,5-dimethyl-1H-pyrazol-3-yl)-6-((methyl-d3)amino)nicotinamide]
3 | < 50 | 55 to 85 | 55 to 85 | CC(=O)c1c(C)c2cnc(Nc3ccc(N4CCC5(CCN(CC(=O)N6CC7(CC(Nc8nc(NC(C)C)ccc8C(=O)Nc8ccc(N(C)C)nn8)C7)C6)C5)C4)cn3)nc2n(C2CCCC2)c1=O (stereo not drawn) [CPD-448, 2-((2-(2-(7-(6-((6-acetyl-8-cyclopentyl-5-methyl-7-oxo-7,8-dihydropyrido[2,3-d]pyrimidin-2-yl)amino)pyridin-3-yl)-2,7-diazaspiro[4.4]nonan-2-yl)acetyl)-2-azaspiro[3.3]heptan-6-yl)amino)-N-(6-(dimethylamino)pyridazin-3-yl)-6-(isopropylamino)nicotinamide]
4 | > 100 | > 85 | > 85 | CC(C)Nc1ccc(C(=O)Nc2ccc(N(C)C)nn2)c(NC2CC3(C2)CN(C(=O)CN2CCN(Cc4ccc(Nc5ncc6cc7n(c6n5)C5(CCCCC5)CNC7=O)nc4)CC2)C3)n1 [CPD-557, N-(6-(dimethylamino)pyridazin-3-yl)-6-(isopropylamino)-2-((2-(2-(4-((6-((6′-oxo-7′,8′-dihydro-6′H-spiro[cyclohexane-1,9′-pyrazino[1′,2′:1,5]pyrrolo[2,3-d]pyrimidin]-2′-yl)amino)pyridin-3-yl)methyl)piperazin-1-yl)acetyl)-2-azaspiro[3.3]heptan-6-yl)amino)nicotinamide]
5 | > 100 | > 85 | > 85 | CC(C)Nc1ccc(C(=O)Nc2ccc(N(C)C)nn2)c(NC2CC3(CC(NC(=O)CN4CCN(Cc5ccc(Nc6ncc7cc8n(c7n6)C6(CCCCC6)CNC8=O)nc5)CC4)C3)C2)n1 (stereo not drawn) [CPD-558, N-(6-(dimethylamino)pyridazin-3-yl)-6-(isopropylamino)-2-((6-(2-(4-((6-((6′-oxo-7′,8′-dihydro-6′H-spiro[cyclohexane-1,9′-pyrazino[1′,2′:1,5]pyrrolo[2,3-d]pyrimidin]-2′-yl)amino)pyridin-3-yl)methyl)piperazin-1-yl)acetamido)spiro[3.3]heptan-2-yl)amino)nicotinamide]
6 | < 50 | 55 to 85 | 55 to 85 | CC(=O)c1c(C)c2cnc(Nc3ccc(N4CCN(C5CCN(C(=O)[C@H]6CC[C@H](Nc7nc(C8CC8)ccc7C(=O)Nc7ccc(N(C)C)nn7)CC6)C5)CC4)cn3)nc2n(C2CCCC2)c1=O (stereo partly drawn) [CPD-573, 2-((trans-4-(3-(4-(6-((6-acetyl-8-cyclopentyl-5-methyl-7-oxo-7,8-dihydropyrido[2,3-d]pyrimidin-2-yl)amino)pyridin-3-yl)piperazin-1-yl)pyrrolidine-1-carbonyl)cyclohexyl)amino)-6-cyclopropyl-N-(6-(dimethylamino)pyridazin-3-yl)nicotinamide]
7 | < 50 | > 85 | 55 to 85 | CC(=O)c1c(C)c2cnc(Nc3ccc(N4CCN(C5CCN(C(=O)C6(O)CCC(Nc7nc(NC(C)C)ccc7C(=O)Nc7ccc(N(C)C)nn7)CC6)C5)CC4)cn3)nc2n(C2CCCC2)c1=O (stereo not drawn) [CPD-574, 2-((cis-4-(3-(4-(6-((6-acetyl-8-cyclopentyl-5-methyl-7-oxo-7,8-dihydropyrido[2,3-d]pyrimidin-2-yl)amino)pyridin-3-yl)piperazin-1-yl)pyrrolidine-1-carbonyl)-4-hydroxycyclohexyl)amino)-N-(6-(dimethylamino)pyridazin-3-yl)-6-(isopropylamino)nicotinamide]
8 | > 100 | 55 to 85 | 55 to 85 | CC(=O)c1c(C)c2cnc(Nc3ccc(N4CCN(C5CCN(C(=O)[C@H]6CC[C@H](Nc7nc(C)ccc7C(=O)Nc7ccc(N(C)C)nn7)CC6)C5)CC4)cn3)nc2n(C2CCCC2)c1=O (stereo partly drawn) [CPD-576, 2-((trans-4-(3-(4-(6-((6-acetyl-8-cyclopentyl-5-methyl-7-oxo-7,8-dihydropyrido[2,3-d]pyrimidin-2-yl)amino)pyridin-3-yl)piperazin-1-yl)pyrrolidine-1-carbonyl)cyclohexyl)amino)-N-(6-(dimethylamino)pyridazin-3-yl)-6-methylnicotinamide]
9 | < 50 | > 85 | 55 to 85 | CCc1ccc(C(=O)Nc2ccc(N(C)C)nn2)c(NC23CC(C(=O)N4CCC(N5CCN(c6ccc(Nc7ncc8c(C)c(C(C)=O)c(=O)n(C9CCCC9)c8n7)nc6)CC5)C4)(C2)C3)n1 (stereo not drawn) [CPD-577, 2-((3-(3-(4-(6-((6-acetyl-8-cyclopentyl-5-methyl-7-oxo-7,8-dihydropyrido[2,3-d]pyrimidin-2-yl)amino)pyridin-3-yl)piperazin-1-yl)pyrrolidine-1-carbonyl)bicyclo[1.1.1]pentan-1-yl)amino)-N-(6-(dimethylamino)pyridazin-3-yl)-6-ethylnicotinamide]
10 | < 50 | 55 to 85 | 55 to 85 | CCc1ccc(C(=O)Nc2ccc(N(C)C)nn2)c(NC2CC3(CC(NC(=O)CN4CCN(Cc5ccc(Nc6ncc7c(C)c(C(C)=O)c(=O)n(C8CCCC8)c7n6)nc5)CC4)C3)C2)n1 (stereo not drawn) [CPD-578, 2-((6-(2-(4-((6-((6-acetyl-8-cyclopentyl-5-methyl-7-oxo-7,8-dihydropyrido[2,3-d]pyrimidin-2-yl)amino)pyridin-3-yl)methyl)piperazin-1-yl)acetamido)spiro[3.3]heptan-2-yl)amino)-N-(6-(dimethylamino)pyridazin-3-yl)-6-ethylnicotinamide]
11 | < 50 | 55 to 85 | 55 to 85 | CC(=O)c1c(C)c2cnc(Nc3ccc(CN4CCN(CC(=O)NC5CC6(C5)CC(Nc5nc(C(C)C)ccc5C(=O)Nc5ccc(N(C)C)nn5)C6)CC4)cn3)nc2n(C2CCCC2)c1=O (stereo not drawn) [CPD-579, 2-((6-(2-(4-((6-((6-acetyl-8-cyclopentyl-5-methyl-7-oxo-7,8-dihydropyrido[2,3-d]pyrimidin-2-yl)amino)pyridin-3-yl)methyl)piperazin-1-yl)acetamido)spiro[3.3]heptan-2-yl)amino)-N-(6-(dimethylamino)pyridazin-3-yl)-6-isopropylnicotinamide]
12 | < 50 | 55 to 85 | 55 to 85 | CC(=O)c1c(C)c2cnc(Nc3ccc(N4CCN(C5CCN(C(=O)C67CC(Nc8nc(C(C)C)ccc8C(=O)Nc8ccc(N(C)C)nn8)(C6)C7)C5)CC4)cn3)nc2n(C2CCCC2)c1=O (stereo not drawn) [CPD-580, 2-((3-(3-(4-(6-((6-acetyl-8-cyclopentyl-5-methyl-7-oxo-7,8-dihydropyrido[2,3-d]pyrimidin-2-yl)amino)pyridin-3-yl)piperazin-1-yl)pyrrolidine-1-carbonyl)bicyclo[1.1.1]pentan-1-yl)amino)-N-(6-(dimethylamino)pyridazin-3-yl)-6-isopropylnicotinamide]
13 | < 50 | 55 to 85 | 55 to 85 | CC(=O)c1c(C)c2cnc(Nc3ccc(CN4CCN(CC(=O)N5CCC6(CCC(Nc7nc(C8CC8)ccc7C(=O)Nc7ccc(N(C)C)nn7)C6)C5)CC4)cn3)nc2n(C2CCCC2)c1=O (stereo not drawn) [CPD-581, 2-((2-(2-(4-((6-((6-acetyl-8-cyclopentyl-5-methyl-7-oxo-7,8-dihydropyrido[2,3-d]pyrimidin-2-yl)amino)pyridin-3-yl)methyl)piperazin-1-yl)acetyl)-2-azaspiro[4.4]nonan-7-yl)amino)-6-cyclopropyl-N-(6-(dimethylamino)pyridazin-3-yl)nicotinamide]
14 | < 50 | 55 to 85 | 55 to 85 | CCc1ccc(C(=O)Nc2ccc(N(C)C)nn2)c(NC2CCC3(CCN(C(=O)CN4CCN(Cc5ccc(Nc6ncc7c(C)c(C(C)=O)c(=O)n(C8CCCC8)c7n6)nc5)CC4)C3)C2)n1 (stereo not drawn) [CPD-582, 2-((2-(2-(4-((6-((6-acetyl-8-cyclopentyl-5-methyl-7-oxo-7,8-dihydropyrido[2,3-d]pyrimidin-2-yl)amino)pyridin-3-yl)methyl)piperazin-1-yl)acetyl)-2-azaspiro[4.4]nonan-7-yl)amino)-N-(6-(dimethylamino)pyridazin-3-yl)-6-ethylnicotinamide]
